Our source for the ED50 values is US4267185A, “Antidepressant pyrrolylpiperidines, their pharmaceutical compositions and method of use” (E. I. Du Pont de Nemours and Company, priority 1980, dated 1981).

A word on the ED50: it is the dose at which the effect has come halfway, by size or by number of responders.

Like-named read-outs stand apart in the source and are kept apart here.

This experiment deals with tetrabenazine-induced sedation and depression in mice. Description: Antagonism of tetrabenazine-induced depression in mice, orally, at 1 hour post-drug. The format is in vivo, female white mice (Carworth CF1 S). To be noted: Mus musculus. The protocol: This mouse test is predictive of human antidepressant response (Everett, "The Dopa Response Potentiation Test and Its Use in Screening for Antidepressant Drugs," pp. 164 in "Antidepressant Drugs" (Proceedings of the First International Symposium), S. Garattini and M. N. G. Dukes, eds., 1967).
Groups of 10 Carworth CF1 S female mice, 18-21 g each, were fasted 1.5 hours and were intubated with antagonist compounds at oral doses of 0, 0.33, 1, 3, 9, 27, and 81 mg/kg in 0.20 ml of 1% Methocel-1.25% Tween 80. The mice were challenged 30 minutes later with tetrabenazine (as the methanesulfonate), 32 mg/kg intraperitoneally (dissolved in 0.20 ml 0.05 M KCl at pH 2.0). One hour after antagonist (30 minutes after tetrabenazine), the mice were examined for signs of exploratory activity and ptosis (eyelid closure). Normal exploratory activity (relief from sedation) was recorded when a mouse lifted by the tail from a group of 10 in a testing box and placed on a stainless testing box lid (12.5"×8"with 0.33" mesh) either turned its head horizontally 30° in both directions or moved to the edge of the screen within 10 seconds after being placed on the screen. Relief from ptosis was recorded when exactly two seconds after placing the mouse facing the observer, lid closure was less than 50% in both eyes.

The mark [1] stands for this setting: po, 1 h, read-out: ED50 for prevention of exploratory loss.
[2] abbreviates: po, 1 h, read-out: ED50 for prevention of ptosis.

`CN(C)CCC=C1c2ccccc2CCc2ccccc21` [Amitriptyline, reference compound]: the median effective dose (ED50) was 3.5 mg/kg (oral, 1 hour post-drug (30 min after tetrabenazine 32 mg/kg i.p.), exploratory activity, read-out: ED50 for prevention of exploratory loss) and 1.4 mg/kg (oral, 1 hour post-drug (30 min after tetrabenazine 32 mg/kg i.p.), lid closure less than 50% in both eyes, read-out: ED50 for prevention of ptosis).
For `CN1CC=C(c2cccn2C)CC1.Cl` [Example 2, 1,2,3,6-Tetrahydro-1-methyl-4-(1-methylpyrrol-2-yl)pyridine, hydrochloride salt], the ED50 worked out at 1.4 mg/kg under setting [1] and 0.8 mg/kg under setting [2].
On the same counts, the results for `CN1CCC(O)(c2cccn2C)CC1` [Example 1, 1-Methyl-4-(1-methylpyrrol-2-yl)-4-piperidinol] are 1.8 mg/kg and 1.1 mg/kg.
